Laboratory results: paper PMC4537050, “A long pentraxin-3-derived pentapeptide for the therapy of FGF8b-driven steroid hormone-regulated cancers” (Oncotarget, 2015)

Key:
[1] = mouse, in vivo, ip, 100 mg/kg
Protocol: Eight week-old C57BL/6 mice were treated i.p. with 100 mg/kg of ARPCA every other day for two weeks. During this period, animals were weighted for body weight variation analysis. At the end of treatment, whole blood and serum were harvested and analysed for blood components, biochemical serum parameters and circulating levels of FGF23. The serum levels of FGF23 were assessed by ELISA (Uscn Life Science Inc., Wuhan, PRC, Asia) according to manufacturer's instructions. Untreated mice were used as reference/control.

FGF9 = FGF9 (Homo sapiens, UniProt P31371); test: SPR analysis of FGF/ARPCA interaction, FGF9; format: binding; conditions: immobilized FGF9

## Ac-ARPCA-NH2 [ARPCA, Ac-ARPCA-NH2]
[1]
  systemic toxic effect in treated animals: absence of any systemic toxic effect
FGF9
  Kd, FGF9: n.b.
